From patent US11505580B2, “Leech polypeptide and use thereof” (priority 2019, dated 2022)
Where no end group is shown, it is not given here.

Experiments:
Format in all cases: cell-based
macrophages RAW264.7 = test: Transwell migration assay, LPS-induced macrophage RAW264.7 migration; details: 800 μg/mL, 1 μg/mL LPS
From the text: In this example, a leech zymolyte HE was firstly prepared from […] by enzymolysis. […] Then, HE was separated and purified by chromatography on QSepharose FF strong basic anion exchange column, and chromatography on Superdex30, Superdexpeptide and G10 gel column, and Transwell assay was done to track the activity. Finally leech polypeptide HE4-1 having activity to inhibit the migration of macrophages RAW264.7 was obtained. Transwell migration assay was used to detect the activity of HE1-HE6 in inhibiting the macrophage migration. […] Transwell assay was used to detect the inhibition of HE-D on the migration activity of macrophages RAW264.7. The experiments were divided into five groups, including a blank control group, an LPS model group and 200, 400, 800 μg/mL HE-D groups.

JNK = test: Western-blot of JNK signaling pathway in LPS-induced RAW264.7 cells; details: RAW264.7 induced with LPS
Description: (§1) The mechanism of HE-D inhibiting macrophages RAW264.7 was tested by Western-blot.

p38 = test: Western-blot of p38 signaling pathway in LPS-induced RAW264.7 cells; details: RAW264.7 induced with LPS
Description: as §1

macrophage RAW264.7 [1] = test: Neutral red phagocytosis test; details: 0-800 μg/mL
Description: (§2) The effects of HE-D on the phagocytosis ability and lysozyme activity of macrophage RAW264.7 were measured by neutral red phagocytosis test and lysozyme activity assay.

macrophage RAW264.7 [2] = test: Lysozyme activity assay; details: 0-800 μg/mL
Description: as §2

IL-1 = test: ELISA of IL-1 secretion by macrophages RAW264.7; details: 0-800 μg/mL
From the text: (§3) The effect of HE-D on the secretion of IL-1, IL-6, IL-12, and TNF-α by macrophages RAW264.7 was detected by ELISA.

IL-6 = test: ELISA of IL-6 secretion by macrophages RAW264.7; details: 0-800 μg/mL
From the text: as §3

IL-12 = test: ELISA of IL-12 secretion by macrophages RAW264.7; details: 0-800 μg/mL
From the text: as §3

TNF-α = test: ELISA of TNF-α secretion by macrophages RAW264.7; details: 400 and 800 μg/mL
From the text: as §3

Which “inhibition rate of LPS-induced migration of macrophages RAW264.7” value (macrophages RAW264.7) does the source give for “EAGSAKELEGDPVAG [HE4-1, leech polypeptide isolated and purified from HE4 by Superdex30, Superdexpeptide and G10 gel chromatography]” here?
The value was 15.2%.

Which “inhibition rate of LPS-induced migration of macrophages RAW264.7” value (macrophages RAW264.7) does the source give for EAGSAKELEGDPVAG [HE-D] here?
Its value is 14.9%.

What about the “LPS-induced increase in expression level of phosphorylated JNK protein” value (JNK; 800 μg/mL) of the same sequence?
The value was “significantly inhibit the increase”.

And the “expression of JNK protein” value (JNK)?
Its value is “no significant effect”.

And the “LPS-induced increase in expression level of phosphorylated p38 protein” value (p38; 800 μg/mL)?
Its value is “significantly inhibit the increase”.

What about the “expression of total p38 protein” value (p38) of the same sequence?
The value was “no significant effect”.

What about the “phagocytosis ability of macrophages RAW264.7” value (macrophage RAW264.7 [1]) of the same sequence?
Its value is “no obvious effect”.

And the “lysozyme activity of macrophages RAW264.7” value (macrophage RAW264.7 [2])?
The value was “no obvious effect”.

What about the “secretion of IL-1” value (IL-1) of the same sequence?
Its value is “no significant effect”.

And the “secretion of IL-6” value (IL-6)?
The value was “no significant effect”.

And the “secretion of IL-12” value (IL-12)?
Its value is “no significant effect”.

And the “promotion effect on secretion of TNF-α” value (TNF-α)?
Its value is 11.4%.

And the “secretion of TNF-α” value (TNF-α)?
The value was “promote the secretion”.
